Reference: patent publication US5684003A, “5-HT4 receptor agonists” (Nisshin Flour Milling Co., Ltd., priority 1994, dated 1997)
pEC50: −log10 of the molar value. Counter-ions that a name gives are not always drawn. Like-named read-outs stand apart in the source and are kept apart here.

Legend:
5-HT4 receptor = 5-HT4 receptor (Cavia porcellus, UniProt O70528); experiment: Increase in contraction height of electrically stimulated longitudinal muscle of isolated guinea pig ileum (LMMP); type: cell-based; set-up: key: +: indicates the increase in the contraction height; -: indicates no effect
Chain of 5-HT4 receptor (O70528 whole entry): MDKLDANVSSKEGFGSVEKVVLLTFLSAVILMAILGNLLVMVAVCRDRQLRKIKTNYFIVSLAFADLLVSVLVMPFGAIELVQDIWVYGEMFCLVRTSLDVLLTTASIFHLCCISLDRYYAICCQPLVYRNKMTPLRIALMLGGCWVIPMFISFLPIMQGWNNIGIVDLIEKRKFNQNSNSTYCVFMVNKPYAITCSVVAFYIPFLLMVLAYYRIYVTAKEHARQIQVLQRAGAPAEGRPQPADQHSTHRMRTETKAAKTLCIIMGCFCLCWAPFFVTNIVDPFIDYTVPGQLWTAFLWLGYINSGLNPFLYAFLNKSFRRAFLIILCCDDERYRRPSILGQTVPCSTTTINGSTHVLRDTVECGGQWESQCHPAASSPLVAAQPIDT
Text: Ileum was excised from guinea pigs to prepare longitudinal muscle samples with approximately 2 cm length. The sample was suspended in Krebs-Henseleit liquid bath supplied with a mixed gas (95% O2, 5% CO2) and subjected to electrical stimulation (1 msec, 0.1 Hz) to record contraction force isometrically. The test compounds were. dissolved in distilled water or DMSO and tested at a concentration of 10^-7 M (but 10^-6 M for Compound 11). The results are shown by the presence or absence of the increase in the contraction height by electrical stimulation before administration of the compound, wherein the symbol "+" indicates the increase in the contraction height, while "-" indicates no effect.
Whether or not the action of the above compounds is that via activation of 5-HT4 receptors was investigated using as 5-HT4 receptor antagonist, SDZ 205-557 (2-methoxy-4-amino-5-chlorobenzoic acid 2-(diethylamino)ethyl ester) described in Naunyn-Schmiedeberg's Arch Pharmacol (1992) 345:387-393. Thus, the investigation as to whether SDZ 205-557 can antagonize the increase in the contraction height of the above compounds using the longitudinal muscle preparation of the isolated guinea pig ileum can reveal that such increase in the contraction height is the action via activation of 5-HT4 receptors.

5-HT3 receptor = biological target: T1, 5-HT3 receptor (Rattus norvegicus, UniProt P35563); experiment: 5-HT3 receptor antagonist activity: inhibition of 2-Me-5-HT-induced reduction in heart rate in anesthetized rats; type: in vivo; settings: iv (jugular vein) 5 minutes before 2-Me-5-HT 0.1 mg/kg, read-out: IC50 (the source's name)
T1 construct: from tissue; host or cells: whole anesthetized rat (in vivo); endogenous receptor
T1 sequence (P35563 24-483): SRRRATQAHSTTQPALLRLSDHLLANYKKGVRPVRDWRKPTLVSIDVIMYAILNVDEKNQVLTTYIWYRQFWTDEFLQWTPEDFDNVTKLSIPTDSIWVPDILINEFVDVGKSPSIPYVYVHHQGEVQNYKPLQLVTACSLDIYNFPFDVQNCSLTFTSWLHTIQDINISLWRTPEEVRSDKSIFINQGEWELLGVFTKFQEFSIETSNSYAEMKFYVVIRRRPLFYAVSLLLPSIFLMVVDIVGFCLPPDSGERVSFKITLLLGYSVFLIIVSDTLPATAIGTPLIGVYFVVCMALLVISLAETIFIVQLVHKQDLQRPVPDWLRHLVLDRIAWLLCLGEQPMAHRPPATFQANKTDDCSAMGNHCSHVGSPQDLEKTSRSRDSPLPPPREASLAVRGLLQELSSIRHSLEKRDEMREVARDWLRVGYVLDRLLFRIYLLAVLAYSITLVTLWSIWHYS
Experimental: For the purpose of studying a receptor selectivity of the present compounds, the 5-HT3 receptor antagonist activity was tested in the following manner. Rats were anesthetized with urethane and heart rate was recorded through femoral artery. The 5-HT3 selective agonist, 2-methyl-5-hydroxytryptamine (2-Me-5-HT) was administered at 0.1 mg/kg through carotid arteries and transient reduction in heart rate was recorded. The test. compounds were administered through jugular vein at 5 minutes before the administration of 2-Me-5-HT, inhibitory rate of reduction in heart rate by the administration of 2-Me-5-HT was calculated and IC50 value was calculated from the inhibitory rate.

5-HT4 receptors = biological target: T2, 5-HT4 receptors (Rattus norvegicus, UniProt Q62758); experiment: Relaxation of carbachol-contracted rat oesophageal tunica muscularis mucosae; type: cell-based
T2 construct: from tissue; host or cells: rat oesophageal tunica muscularis mucosae
T2 sequence (Q62758 whole entry): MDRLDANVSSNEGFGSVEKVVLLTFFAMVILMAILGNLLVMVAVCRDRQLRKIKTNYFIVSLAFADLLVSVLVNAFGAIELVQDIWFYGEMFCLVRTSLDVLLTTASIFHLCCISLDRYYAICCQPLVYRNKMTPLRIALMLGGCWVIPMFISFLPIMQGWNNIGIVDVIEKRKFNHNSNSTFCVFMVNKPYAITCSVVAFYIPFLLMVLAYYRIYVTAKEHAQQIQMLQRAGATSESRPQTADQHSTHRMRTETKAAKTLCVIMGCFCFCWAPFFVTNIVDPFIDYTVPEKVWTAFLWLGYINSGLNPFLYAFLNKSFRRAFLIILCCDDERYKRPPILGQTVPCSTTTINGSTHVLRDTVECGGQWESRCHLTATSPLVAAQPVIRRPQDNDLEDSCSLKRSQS
Experimental: The agonistic activity of oxazabicyclo derivatives and Mosapride on 5-HT4 receptors was determined by the procedure mentioned in Naunyn-Schmiedeberg's Arch Pharmacol (1991) 343:439-446.
The rat oesophageal tunica muscularis mucosae were suspended in organ both containing Krebs-Henseleit solution aerated with a mixed gas (95% O2, 5% CO2) and contracted with carbachol (1×10^-6 M). After the contraction was stabilized, the cumulative administration of the compounds was performed to determine the relaxation of the rat oesophagus pre-contracted with carbachol. The concentration (ED50) to cause 50% relaxation of the carbachol-induced contraction was measured. The result is expressed in terms of -log ED50 and shown in the following table in which higher numerical value indicates higher activity.

Row | SMILES | pEC50 (5-HT4 receptors) | also measured
1 | CCCCN1[C@@H]2COC[C@H]1C[C@@H](NC(=O)c1nn(C(C)CC)c3ccccc13)C2 (relative stereo) [Example 8] | 6.20 | LMMP: presence or absence of the increase in the contraction height by electrical stimulation (5-HT4 receptor; test concentration 10^-7 M): +; ED50 (5-HT3 receptor): 0.0297 mg/kg
2 | CCCCN1[C@@H]2COC[C@H]1C[C@@H](NC(=O)c1nn(C(C)CCC)c3ccccc13)C2 (relative stereo) [Example 9, N-[endo-9-(n-Butyl)-3-oxa-9-azabicyclo[3.3.1]non-7-yl]-1-(2-pentyl)-indazole-3-carboxamide] | 6.11 | 
3 | CC#CC(C)n1nc(C(=O)N[C@H]2C[C@H]3COC[C@@H](C2)N3CCCC)c2ccccc21 (relative stereo) [Example 17, N-[endo-9-(n-Butyl)-3-oxa-9-azabicyclo[3.3.1]non-7-yl]-1-(1-methyl-2-butynyl)indazole-3-carboxamide] | 5.65 | 
4 | CN1[C@@H]2COC[C@H]1C[C@@H](NC(=O)c1nn(C)c3ccccc13)C2 [Comparative Example 1, N-[endo-9-Methyl-3-oxa-9-azabicyclo[3.3.1]non-7-yl]-1-methylindazole-3-carboxamide, reference compound] |  | LMMP: presence or absence of the increase in the contraction height by electrical stimulation (5-HT4 receptor; test concentration 10^-7 M): -; EC50 (5-HT4 receptors; ED50 = concentration to cause 50% relaxation of contraction by carbachol (1×10^-6 M), cumulative administration, read-out: Activity (-log ED50) (converted)): 115000 nM
5 | CC(C)n1nc(C(=O)N[C@H]2C[C@H]3COC[C@@H](C2)N3C)c2ccccc21 [Comparative Example 2, N-[endo-9-Methyl-3-oxa-9-azabicyclo[3.3.1]non-7-yl]-1-isopropylindazole-3-carboxamide, reference compound] | 5.82 | LMMP: presence or absence of the increase in the contraction height by electrical stimulation (5-HT4 receptor; test concentration 10^-7 M): +; ED50 (5-HT3 receptor): 0.00032 mg/kg
6 | CCCCN1[C@@H]2COC[C@H]1C[C@@H](NC(=O)c1nn(CCC)c3ccccc13)C2 [Example 1, N-[endo-9-(n-Butyl)-3-oxa-9-azabicyclo[3.3.1]non-7-yl]-1-(n-propyl)indazole-3-carboxamide] | 5.42 | 
7 | CCCN1[C@@H]2COC[C@H]1C[C@@H](NC(=O)c1nn(C(C)C)c3ccccc13)C2 [Example 2, N-[endo-9-(n-Propyl)-3-oxa-9-azabicyclo[3.3.1]non-7-yl]-1-isopropyl-indazole-3-carboxamide] | 5.54 | LMMP: presence or absence of the increase in the contraction height by electrical stimulation (5-HT4 receptor; test concentration 10^-7 M): +; ED50 (5-HT3 receptor): 0.0089 mg/kg
8 | CCCN1[C@@H]2COC[C@H]1C[C@@H](NC(=O)c1nn(C(CC)CC)c3ccccc13)C2 [Example 3, N-[endo-9-(n-Propyl)-3-oxa-9-azabicyclo[3.3.1]non-7-yl]-1-(3-pentyl)-indazole-3-carboxamide] | 5.78 | 
9 | CCCCN1[C@@H]2COC[C@H]1C[C@@H](NC(=O)c1nn(CC)c3ccccc13)C2 [Example 4, N-[endo-9-(n-Butyl)-3-oxa-9-azabicyclo[3.3.1]non-7-yl]-1-ethylindazole-3-carboxamide] | 4.99 | 
10 | CCCCN1[C@@H]2COC[C@H]1C[C@@H](NC(=O)c1nn(CCCC)c3ccccc13)C2 [Example 6, N-[endo-9-(n-Butyl)-3-oxa-9-azabicyclo[3.3.1]non-7-yl]-1-(n-butyl)-indazole-3-carboxamide] | 5.33 | 
11 | CCCCN1[C@@H]2COC[C@H]1C[C@@H](NC(=O)c1nn(CC(C)C)c3ccccc13)C2 [Example 7, N-[endo-9-(n-Butyl)-3-oxa-9-azabicyclo[3.3.1]non-7-yl]-1-isobutyl-indazole-3-carboxamide] | 5.28 | 
12 | CCCCN1[C@@H]2COC[C@H]1C[C@@H](NC(=O)c1nn(C(CC)CC)c3ccccc13)C2 [Example 10, N-[endo-9-(n-Butyl)-3-oxa-9-azabicyclo[3.3.1.]non-7-yl]-1-(3-pentyl)indazole-3-carboxamide] | 6.07 | 
13 | C=CCn1nc(C(=O)N[C@H]2C[C@H]3COC[C@@H](C2)N3CCCC)c2ccccc21 [Example 11, N-[endo-9-(n-Butyl)-3-oxa-9-azabicyclo[3.3.1]non-7-yl]-1-allyl-indazole-3-carboxamide] | 5.45 | LMMP: presence or absence of the increase in the contraction height by electrical stimulation (5-HT4 receptor; test concentration 10^-6 M (Compound 11)): +
14 | CCCCN1[C@@H]2COC[C@H]1C[C@@H](NC(=O)c1nn(CC=C(C)C)c3ccccc13)C2 [Example 12, N-[endo-9-(n-Butyl)-3-oxa-9-azabicyclo[3.3.1]non-7-yl]-1-(3-methyl-2-butenyl)indazole-3-carboxamide] | 5.17 | 
15 | CCCCN1[C@@H]2COC[C@H]1C[C@@H](NC(=O)c1nn(CC3CC3)c3ccccc13)C2 [Example 13, N-[endo-9-(n-Butyl)-3-oxa-9-azabicyclo[3.3.1]non-7-yl]-1-(cyclopropylmethyl)indazole-3-carboxamide] | 5.68 | LMMP: presence or absence of the increase in the contraction height by electrical stimulation (5-HT4 receptor; test concentration 10^-7 M): +
16 | CCCCCN1[C@@H]2COC[C@H]1C[C@@H](NC(=O)c1nn(C(C)C)c3ccccc13)C2 [Example 14, N-[endo-9-(n-Pentyl)-3-oxa-9-azabicyclo[^3.3.1]non-7-yl]-1-isopropylindazole-3-carboxamide] | 5.83 | LMMP: presence or absence of the increase in the contraction height by electrical stimulation (5-HT4 receptor; test concentration 10^-7 M): +; ED50 (5-HT3 receptor): 0.0281 mg/kg
17 | CCCCCN1[C@@H]2COC[C@H]1C[C@@H](NC(=O)c1nn(C(CC)CC)c3ccccc13)C2 [Example 15, N-[endo-9-(n-Pentyl)-3-oxa-9-azabicyclo[3.3.1]non-7-yl]-1-(3-pentyl)-indazole-3-carboxamide] | 6.09 | 
18 | CCCCN1[C@@H]2COC[C@H]1C[C@@H](NC(=O)c1nn(C3CCCC3)c3ccccc13)C2 [Example 16, N-[endo-9-(n-Butyl)-3-oxa-9-azabicyclo[3.3.1]non-7-yl]-1-cyclopentyl-indazole-3-carboxamide] | 5.11 | 
19 | CCCCN1[C@@H]2COC[C@H]1C[C@@H](NC(=O)c1nn([C@@H](C)CC)c3ccccc13)C2 [Example 18, (S)-(+)-N-[endo-9-(n-Butyl)-3-oxa-9-azabicyclo[3.3.1]non-7-yl]-1-(sec-butyl)indazole-3-carboxamide] | 6.36 | ED50 (5-HT3 receptor): 0.0183 mg/kg
20 | CCCCN1[C@@H]2COC[C@H]1C[C@@H](NC(=O)c1nn([C@H](C)CC)c3ccccc13)C2 [Example 19, (R)-(-)-N-[endo-9-(n-Butyl)-3-oxa-9-azabicyclo[3.3.1]non-7-yl]-1-(sec-butyl)indazole-3-carboxamide] | 5.98 | 
21 | CCCCN1[C@@H]2COC[C@H]1C[C@@H](NC(=O)c1nn(C(C)C)c3ccc(O)cc13)C2 [Example 26, N-[endo-9-(n-Butyl)-3-oxa-9-azabicyclo[3.3.1]non-7-yl]-5-hydroxy-1-isopropylindazole-3-carboxamide (hydrochloride)] | 4.98 | 
22 | CCCCN1[C@@H]2COC[C@H]1C[C@@H](NC(=O)c1nn(C(C)C)c3c(O)cccc13)C2 [Example 27, N-[endo-9-(n-Butyl)-3-oxa-9-azabicyclo[3.3.1]non-7-yl]-7-hydroxy-1-isopropylindazole-3-carboxamide (hydrochloride)] | 4.80 | 
23 | CC(C)n1nc(C(=O)N[C@H]2C[C@H]3COC[C@@H](C2)N3)c2ccccc21 [Example 28, N-[endo-3-Oxa-9-azabicyclo[3.3.1]non-7-yl]-1-isopropylindazole-3-carboxamide (hydrochloride)] | 6.33 | 
